Laboratory results as given in patent US10562908B2, “Ortho substituted phenylpyrazolo- and phenylpyrrolo-pyridazine derivatives having multimodal activity against pain” (priority 2016, dated 2020).
Read-outs that look alike come from different tables or passages of the source.

Key:
[1] = molecular target: Human α2δ-1 subunit of Cav2.2 calcium channel (Homo sapiens, UniProt P54289); assay: Human α2δ-1 subunit of Cav2.2 calcium channel assay ([3H]-Gabapentin); type: binding
Method: Human α2δ-1 Subunit of Cav2.2 Calcium Channel Assay
Human α2δ-1 enriched membranes (2.5 μg) were incubated with 15 nM of radiolabeled [3H]-Gabapentin in assay buffer containing Hepes-KOH 10 mM, pH 7.4. NSB (non specific binding) was measured by adding 10 μM pregabalin. After 60 min incubation at 27° C., binding reaction was terminated by filtering through Multiscreen GF/C (Millipore) presoaked in 0.5% polyethyleneimine in Vacuum Manifold Station, followed by 3 washes with ice-cold filtration buffer containing 50 mM Tris-HCl, pH 7.4. Filter plates were dried at 60° C. for 1 hour and 30 μl of scintillation cocktail were added to each well before radioactivity reading. Readings were performed in a Trilux 1450 Microbeta radioactive counter (Perkin Elmer), i.e. Human α2δ-1 enriched membranes (2.5 μg) were incubated with 15 nM of radiolabeled [3H]-Gabapentin in assay buffer containing Hepes-KOH 10 mM, pH 7.4. NSB (non specific binding) was measured by adding 10 μM pregabalin. The binding of the test compound was measured at five different concentrations. After 60 min incubation at 27° C., binding reaction was terminated by filtering through Multiscreen GF/C (Millipore) presoaked in 0.5% polyethyleneimine in Vacuum Manifold Station, followed by 3 washes with ice-cold filtration buffer containing 50 mM Tris-HCl, pH 7.4. Filter plates were dried at 60° C. for 1 hour and 30 μl of scintillation cocktail were added to each well before radioactivity reading. Readings were performed in a Trilux 1450 Microbeta radioactive counter (Perkin Elmer).

human μ-opioid receptor = molecular target: T1, human μ-opioid receptor (Homo sapiens, UniProt P35372); assay: Human μ-opioid receptor radioligand assay ([3H]-DAMGO); type: binding
T1 construct: expressed in transfected cells; host or cells: CHO-K1
Method: Human μ-Opioid Receptor Radioligand Assay
To investigate binding properties of test compounds to human μ-opioid receptor, transfected CHO-K1 cell membranes and [^3H]-DAMGO (Perkin Elmer, ES-542-C), as the radioligand, were used. The assay was carried out with 20 μg of membrane suspension, 1 nM of [^3H]-DAMGO in either absence or presence of either buffer or 10 μM Naloxone for total and non-specific binding, respectively. Binding buffer contained Tris-HCl 50 mM, MgCl2 5 mM at pH 7.4. Plates were incubated at 27° C. for 60 minutes. After the incubation period, the reaction mix was then transferred to MultiScreen HTS, FC plates (Millipore), filtered and plates were washed 3 times with ice-cold 10 mM Tris-HCL (pH 7.4). Filters were dried and counted at approximately 40% efficiency in a MicroBeta scintillation counter (Perkin-Elmer) using EcoScint liquid scintillation cocktail, preferably, transfected CHO-K1 cell membranes (20 μg) were incubated with 1 nM of [^3H]-DAMGO in assay buffer containing Tris-HCl 50 mM, MgCl2 5 mM at pH 7.4. NBS (non-specific binding) was measured by adding 10 μM Naloxone. The binding of the test compound was measured at five different concentrations. Plates were incubated at 27° C. for 60 minutes. After the incubation period, the reaction mix was then transferred to MultiScreen HTS, FC plates (Millipore), filtered and plates were washed 3 times with ice-cold 10 mM Tris-HCL (pH 7.4). Filters were dried and counted at approximately 40% efficiency in a MicroBeta scintillation counter (Perkin-Elmer) using EcoScint liquid scintillation cocktail.

[2] = human α2δ-1 enriched membranes, 15 nM [3H]-Gabapentin, read-out: Binding α2δ-1 (Ki)
[3] = transfected CHO-K1 cell membranes, 1 nM [3H]-DAMGO, read-out: Binding μ (Ki)

T1 sequence (P35372 whole entry): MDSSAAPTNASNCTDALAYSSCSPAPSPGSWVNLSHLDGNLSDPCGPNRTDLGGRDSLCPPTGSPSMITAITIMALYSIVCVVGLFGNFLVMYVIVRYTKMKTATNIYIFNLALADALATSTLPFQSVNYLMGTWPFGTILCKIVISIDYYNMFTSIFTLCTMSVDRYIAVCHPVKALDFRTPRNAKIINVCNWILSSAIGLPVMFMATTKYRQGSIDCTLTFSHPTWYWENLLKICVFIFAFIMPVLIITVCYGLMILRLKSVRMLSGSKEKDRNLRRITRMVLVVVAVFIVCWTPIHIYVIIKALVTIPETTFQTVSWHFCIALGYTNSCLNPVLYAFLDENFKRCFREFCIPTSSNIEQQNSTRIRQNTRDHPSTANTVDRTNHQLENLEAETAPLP
Human α2δ-1 subunit of Cav2.2 calcium channel, sequence (P54289 25-1103): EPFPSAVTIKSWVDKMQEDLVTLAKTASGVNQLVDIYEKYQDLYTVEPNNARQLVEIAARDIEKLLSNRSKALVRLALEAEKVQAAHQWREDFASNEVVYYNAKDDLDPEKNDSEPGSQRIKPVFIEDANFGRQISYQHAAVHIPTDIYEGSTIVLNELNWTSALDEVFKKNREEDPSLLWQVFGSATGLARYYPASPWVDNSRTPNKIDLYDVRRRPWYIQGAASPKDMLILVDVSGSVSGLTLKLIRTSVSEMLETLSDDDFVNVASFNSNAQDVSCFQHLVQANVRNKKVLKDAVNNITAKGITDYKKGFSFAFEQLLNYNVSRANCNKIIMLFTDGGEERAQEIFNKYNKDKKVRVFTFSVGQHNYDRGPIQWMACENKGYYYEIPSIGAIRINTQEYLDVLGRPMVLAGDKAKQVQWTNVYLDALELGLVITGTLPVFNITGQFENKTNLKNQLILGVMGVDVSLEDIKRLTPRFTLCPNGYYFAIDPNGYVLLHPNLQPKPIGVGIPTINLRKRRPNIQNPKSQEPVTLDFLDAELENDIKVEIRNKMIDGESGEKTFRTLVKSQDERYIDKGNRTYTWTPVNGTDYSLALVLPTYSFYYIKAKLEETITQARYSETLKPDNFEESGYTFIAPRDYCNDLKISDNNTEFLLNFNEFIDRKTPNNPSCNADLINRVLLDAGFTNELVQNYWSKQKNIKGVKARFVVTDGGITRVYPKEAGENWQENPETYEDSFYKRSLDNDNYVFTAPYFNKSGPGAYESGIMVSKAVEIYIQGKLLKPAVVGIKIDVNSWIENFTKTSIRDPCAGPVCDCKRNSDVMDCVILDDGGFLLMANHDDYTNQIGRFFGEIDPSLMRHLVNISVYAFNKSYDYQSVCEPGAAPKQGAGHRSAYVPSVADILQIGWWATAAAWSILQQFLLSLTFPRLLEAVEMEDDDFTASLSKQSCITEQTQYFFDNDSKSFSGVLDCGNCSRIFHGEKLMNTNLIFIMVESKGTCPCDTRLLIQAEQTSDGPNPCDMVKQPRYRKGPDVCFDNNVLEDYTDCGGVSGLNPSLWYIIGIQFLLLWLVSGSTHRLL

Row | Structure (SMILES) | Ki [1] | Ki (human μ-opioid receptor) | Ki [1, 2] | Ki (human μ-opioid receptor; [3])
1 | Cc1nnc(N(C)C)c2nn(-c3ccccc3OC(CCN(C)C)c3ccccc3)c(C)c12 (stereo not drawn) [Example 52, 2-(2-(3-(Dimethylamino)-1-phenylpropoxy)phenyl)-N,N,3,4-tetramethyl-2H-pyrazolo[3,4-d]pyridazin-7-amine] | 0.5 to 5 µM | 0.1 to 0.5 µM | – | –
2 | Cc1nnc(N(C)C)c2nn(-c3ccccc3OC3CCN(C)C3)c(C)c12 (stereo not drawn) [Example 53, N,N,3,4-tetramethyl-2-(2-((1-methylpyrrolidin-3-yl)oxy)phenyl)-2H-pyrazolo[3,4-d]pyridazin-7-amine] | – | – | > 5 µM | > 0.5 µM
3 | Cc1nnc(N(C)C)c2nn(-c3ccccc3OC(c3ccccc3)C3CCN(C)CC3)c(C)c12 (stereo not drawn) [Example 54, N,N,3,4-tetramethyl-2-(2-((1-methylpiperidin-4-yl)(phenyl)methoxy)phenyl)-2H-pyrazolo[3,4-d]pyridazin-7-amine] | – | – | > 5 µM | > 0.5 µM
4 | Cc1nnc(N(C)C)c2nn(-c3ccccc3OC3CCN(CCc4ccccc4)C3)c(C)c12 (stereo not drawn) [Example 55, N,N,3,4-tetramethyl-2-(2-((1-phenethylpyrrolidin-3-yl)oxy)phenyl)-2H-pyrazolo[3,4-d]pyridazin-7-amine] | 0.5 to 5 µM | 0.1 to 0.5 µM | – | –
5 | Cc1nnc(N(C)C)c2nn(-c3ccccc3OC(CCNCC(F)F)c3ccccc3)c(C)c12 (stereo not drawn) [Example 56, 2-(2-(3-((2,2-difluoroethyl)amino)-1-phenylpropoxy)phenyl)-N,N,3,4-tetramethyl-2H-pyrazolo[3,4-d]pyridazin-7-amine] | 0.5 to 5 µM | 0.1 to 0.5 µM | – | –
6 | Cc1nnc(N(C)C)c2nn(-c3ccccc3OCC3CCN(Cc4ccccc4)CC3)c(C)c12 [Example 57, 2-(2-((1-benzylpiperidin-4-yl)methoxy)phenyl)-N,N,3,4-tetramethyl-2H-pyrazolo[3,4-c]pyridazin-7-amine] | – | – | > 5 µM | > 0.5 µM
7 | Cc1nnc(N(C)C)c2nn(-c3ccccc3OCC3CCN(CCc4ccccc4)CC3)c(C)c12 [Example 58, N,N,3,4-tetramethyl-2-(2-((1-phenethylpiperidin-4-yl)methoxy)phenyl)-2H-pyrazolo[3,4-d]pyridazin-7-amine] | > 5 µM | < 0.1 µM | – | –
8 | CNCCC(Oc1ccccc1-n1nc2c(N(C)CCO)nnc(C)c2c1C)c1ccccc1 (stereo not drawn) [Example 59, 2-((3,4-Dimethyl-2-(2-(3-(methylamino)-1-phenylpropoxy)phenyl)-2H-pyrazolo[3,4-d]pyridazin-7-yl)(methyl)amino)etanol] | – | – | 0.5 to 5 µM | > 0.5 µM
9 | CNCCC(Oc1ccccc1-n1nc2c(N(C)CCOC)nnc(C)c2c1C)c1ccccc1 (stereo not drawn) [Example 60, N-(2-methoxyethyl)-N,3,4-trimethyl-2-(2-(3-(methylamino)-1-phenylpropoxy)phenyl)-2H-pyrazolo[3,4-d]pyridazin-7-amine] | – | – | 0.5 to 5 µM | > 0.5 µM
10 | CNCCC(Oc1ccccc1-n1nc2c(N(C)CCCO)nnc(C)c2c1C)c1ccccc1 (stereo not drawn) [Example 61, 3-((3,4-dimethyl-2-(2-(3-(methylamino)-1-phenylpropoxy)phenyl)-2H-pyrazolo[3,4-d]pyridazin-7-yl)(methyl)amino)propan-1-ol] | – | – | 0.5 to 5 µM | > 0.5 µM
11 | CNCCC(Oc1ccccc1-n1nc2c(N(C)CCN(C)C)nnc(C)c2c1C)c1ccccc1 (stereo not drawn) [Example 62, N1-(3,4-dimethyl-2-(2-(3-(methylamino)-1-phenylpropoxy)phenyl)-2H-pyrazolo[3,4-d]pyridazin-7-yl)-N1,N2,N2-trimethylethane-1,2-diamine] | – | – | 0.5 to 5 µM | > 0.5 µM
12 | CNCCC(Oc1ccccc1-n1nc2c(CC#N)nnc(C)c2c1C)c1ccccc1 (stereo not drawn) [Example 63, 2-(3,4-Dimethyl-2-(2-(3-(methylamino)-1-phenylpropoxy)phenyl)-2H-pyrazolo[3,4-d]pyridazin-7-yl)acetonitrile] | – | – | > 5 µM | > 0.5 µM
